In patent US11155517B2, “4-substituted phenylamine derivatives and their use to protect crops by fighting undesired phytopathogenic micoorganisms” (PI INDUSTRIES LTD., priority 2016, dated 2021):

Assays:
Pyricularia oryzae = test: microbe, parasite or virus in culture; assay type: cell-based; conditions: 168 h, read-out: % control compared to the untreated check (radial growth)
Rhizoctonia solani = Rhizoctonia solani (rice sheath blight/potato black scurf) in vitro test, radial growth on Potato Dextrose Agar; assay type: cell-based; conditions: 168 h, 300 ppm, seven days, 25° C., read-out: % control compared to the untreated check (radial growth)
Botrytis cinerea = Botrytis cinerea (gray mold) in vitro test, radial growth on Potato Dextrose Agar; assay type: cell-based; conditions: 168 h, 300 ppm, seven days, 22° C., read-out: % (control) compared to the untreated check (radial growth)
Alternaria solani = Alternaria solani (early blight of tomato/potato) in vitro test, radial growth on Potato Dextrose Agar; assay type: cell-based; conditions: 168 h, 300 ppm, seven days, 25° C., read-out: % control compared to the untreated check (radial growth)
Colletotrichum capsici = Colletotrichum capsici (anthracnose) in vitro test, radial growth on Potato Dextrose Agar; assay type: cell-based; conditions: Colletotrichum truncatum, 168 h; 300 ppm; seven days, 25° C.; read-out: % control compared to the untreated check (radial growth)
Septoria lycopersici = Septoria lycopersici (leaf spot of tomato) in vitro test, radial growth on Potato Dextrose Agar; assay type: cell-based; conditions: 168 h, seven days, 25° C., read-out: % control compared to the untreated check (radial growth)
Fusarium culmorum [1] = test: Fusarium culmorum (foot rot of cereals) in vitro test, radial growth on Potato Dextrose Agar; assay type: cell-based; conditions: Fusarium culmorum, 168 h, read-out: % control compared to the untreated check (radial growth)
Botrytis cinera = test: Greenhouse Botrytis cinera test in tomato, preventive; assay type: in vivo; conditions: 24 h, plants sprayed one day before inoculation, read-out: Efficacy (% control), disease severity vs untreated check
Fusarium culmorum [2] = test: Greenhouse Fusarium culmorum test in wheat, preventive; assay type: in vivo; conditions: 24 h, read-out: Efficacy (% control), disease severity vs untreated check
Experimental: Compounds were dissolved in 2% DMSO/Acetone & then mixed with water to calibrated spray volume of 50 ml. This 50 ml spray solution was poured into the spray bottles for further applications.
To test the preventive activity of compounds, healthy young wheat plants raised in the greenhouse were sprayed with active compound preparation at the stated application rates inside the spray cabinets using hallowcone nozzles. One day after treatment, the plants were inoculated with spore suspension (2% Malt) containing 2×10^6 Fusarium culmorum inoculum. The inoculated plants were then kept in greenhouse chamber at 24° C. temperature and 80-90% relative humidity for disease expression.
A visual assessment of compound's performance was carried by rating the disease severity (0-100% scale) on treated plants on 3, 7, 10 and 15 days after application. Efficacy (% control) of the compounds was calculated by comparing the disease rating in the treatment with untreated control. The sprayed plants were also assessed for compound's phytotoxic effects by recording symptoms like necrosis, chlorosis and stunting.

SMILES | inhibition of growth at 300 ppm (Pyricularia oryzae) | inhibition of growth at 300 ppm (Rhizoctonia solani) | inhibition of growth at 300 ppm (Botrytis cinerea) | inhibition of growth at 300 ppm (Alternaria solani) | inhibition of growth at 300 ppm (Colletotrichum capsici) | inhibition of growth at 300 ppm (Septoria lycopersici) | inhibition of growth at 300 ppm (Fusarium culmorum [1]) | pest or weed control at 500 ppm (Botrytis cinera) | pest or weed control at 500 ppm (Fusarium culmorum [2])
CCN(C)C=Nc1cc(C)c(Cc2ccc(Br)cc2)cc1C [Compound 4, N′-(4-(4-bromobenzyl)-2,5-dimethylphenyl)-N-ethyl-N-methylformimidamide] | > 75% | > 80% | > 80% | > 75% | > 80% | > 70% | 75% | 70 to 100% | 
CCN(C)C=Nc1cc(C)c(Cc2ccc(Cl)c(Cl)c2)cc1C [Compound 5, N′-(4-(3,4-dichlorobenzyl)-2,5-dimethylphenyl)-N-ethyl-N-methylformimidamide] | > 75% | > 80% | > 80% | > 75% | > 80% | > 70% | 75% | 70 to 100% | 
CCN(C)C=Nc1cc(C)c(Cc2cccc(C)c2)cc1C [Compound 6, N′-(2,5-dimethyl-4-(3-methylbenzyl)phenyl)-N-ethyl-N-methylformimidamide] | > 75% | > 80% | > 80% | > 75% | > 80% | > 70% | 75% | 70 to 100% | 
CCN(C)C=Nc1cc(C)c(Cc2cccc(Cl)c2)cc1C [Compound 11, N′-(4-(3-chlorobenzyl)-2,5-dimethylphenyl)-N-ethyl-N-methylformimidamide] | > 75% | > 80% | > 80% | > 75% | > 80% |  | 75% | 70 to 100% | 
CCN(C)C=Nc1cc(C)c(Cc2cccc(Br)c2)cc1C [Compound 14, N′-(4-(3-bromobenzyl)-2,5-dimethylphenyl)-N-ethyl-N-methylformimidamide] | > 75% | > 80% | > 80% | > 75% | > 80% | > 70% | 75% | 70 to 100% | 
CCN(C)C=Nc1cc(C)c(Cc2cccc(F)c2)cc1Cl [Compound 30, N′-(2-chloro-4-(3-fluorobenzyl)-5-methylphenyl)-N-ethyl-N-methylformimidamide] | > 75% | > 80% | > 80% | > 75% | > 80% | > 70% | 75% |  | 70 to 100%
CCN(C)C=Nc1cc(C)c(C2(c3ccccc3)SCCS2)cc1C [Compound 33, N′-(2,5-dimethyl-4-(2-phenyl-1,3-dithiolan-2-yl)phenyl)-N-ethyl-N-methylformimidamide] | > 75% | > 80% |  | > 75% |  | > 70% |  |  | 70 to 100%
CCN(C)C=Nc1cc(C)c(Cc2cccc(C)c2)cc1Cl [Compound 43, N′-(2-chloro-5-methyl-4-(3-methylbenzyl)phenyl)-N-ethyl-N-methylformimidamide] | > 75% | > 80% | > 80% | > 75% | > 80% | > 70% | 75% | 70 to 100% | 
CCN(C)C=Nc1cc(C)c(Cc2ccc(F)cc2)cc1C [Compound 57, N-ethyl-N′-(4-(4-fluorobenzyl)-2,5-dimethylphenyl)-N-methylformimidamide] | > 75% | > 80% | > 80% | > 75% | > 80% | > 70% | 75% |  | 70 to 100%
Cc1cc(N=CN2CCCCC2)c(C)cc1Cc1ccccc1Cl [Compound 59, N-(4-(2-chlorobenzyl)-2,5-dimethylphenyl)-1-(piperidin-1-yl)methanimine] | > 75% | > 80% | > 80% | > 75% | > 80% | > 70% | 75% | 70 to 100% | 
CCN(C)C=Nc1cc(C)c(Cc2ccccc2[N+](=O)[O-])cc1Cl [Compound 75, N′-(2-chloro-5-methyl-4-(2-nitrobenzyl)phenyl)-N-ethyl-N-methylformimidamide] | > 75% | > 80% | > 80% | > 75% | > 80% |  | 75% |  | 70 to 100%
CCN(C)C=Nc1cc(C)c(Cc2ccc(F)cc2)cc1Cl [Compound 76, N′-(2-chloro-4-(4-fluorobenzyl)-5-methylphenyl)-N-ethyl-N-methylformimidamide] | > 75% | > 80% | > 80% | > 75% | > 80% |  | 75% |  | 70 to 100%
CCN(C)C=Nc1cc(C)c(Cc2ccc(SC(F)(F)F)cc2)cc1Cl [Compound 77, N′-(2-chloro-5-methyl-4-(4-((trifluoromethyl)thio)benzyl)phenyl)-N-ethyl-N-methylformimidamide] | > 75% | > 80% | > 80% | > 75% |  |  | 75% |  | 70 to 100%
Cc1cc(N=CN(C)C(C)C)c(C)cc1Cc1ccccc1F [Compound 81, N′-(4-(2-fluorobenzyl)-2,5-dimethylphenyl)-N-isopropyl-N-methylformimidamide] | > 75% | > 80% | > 80% | > 75% | > 80% | > 70% | 75% |  | 70 to 100%
CCN(C)C=Nc1cc(C)c(Cc2ccc(C)c(C(F)(F)F)c2)cc1C [Compound 104, N′-(2,5-dimethyl-4-(4-methyl-3-(trifluoromethyl)benzyl)phenyl)-N-ethyl-N-methylformimidamide] | > 75% | > 80% | > 80% | > 75% | > 80% | > 70% | 75% | 70 to 100% | 
CCN(C)C=Nc1cc(C)c(Cc2ccc(Cl)c(F)c2)cc1C [Compound 105, N′-(4-(4-chloro-3-fluorobenzyl)-2,5-dimethylphenyl)-N-ethyl-N-methylformimidamide] | > 75% | > 80% | > 80% | > 75% | > 80% | > 70% | 75% | 70 to 100% | 
CCN(C)C=Nc1cc(C)c(Cc2ccc(Cl)c(C(F)(F)F)c2)cc1Cl [Compound 136, N′-(2-chloro-4-(4-chloro-3-(trifluoromethyl)benzyl)-5-methylphenyl)-N-ethyl-N-methylformimidamide] | > 75% | > 80% | > 80% | > 75% | > 80% |  | 75% |  | 70 to 100%
CCN(C)C=Nc1cc(C)c(Cc2cc(Cl)ccc2Cl)cc1Cl [Compound 166, N′-(2-chloro-4-(2,5-dichlorobenzyl)-5-methylphenyl)-N-ethyl-N-methylformimidamide] | > 75% | > 80% | > 80% | > 75% | > 80% | > 70% |  | 70 to 100% | 
